Drawing on patent US10849864B2, “Combinations and methods for the treatment and/or prevention of fungal infections” (Novan, Inc., priority 2015, dated 2020), this text covers MIC for 1 compound.

In the assay the test system is Tricophyton rubrum (ATCC #28188). In words: MIC evaluation of individual test materials (Macrodilution Broth Method, Phase I). It counts as cell-based. The settings on record: Trichophyton rubrum, ATCC28188; test material alone; T. rubrum inoculum 1.775 × 10^3 CFU/mL per tube; read-out: Minimum Inhibitory Concentration (MIC) (as product concentration). How it is done: The purpose of this study was to evaluate the synergistic in vitro interactions of one drug pair when challenged with Tricophyton rubrum (ATCC #28188).
A minimum inhibitory concentration (MIC) evaluation was performed for each test material versus T. rubrum using modifications of the Macrodilution Broth Method outlined in the CLSI (clinical laboratory standards institute) Document M07-A9: Methods for dilution antimicrobial susceptibility tests for bacteria that grow aerobically, 9th edition. The test materials were terbinafine hydrochloride and Nitricil™ NVN1, which is a NO-releasing diazeniumdiolate-functionalized co-condensed silica from Novan, Inc.
The challenge strain of T. rubrum was exposed to a series of doubling dilutions of each test material. […]
An initial population of T. rubrum was prepared containing approximately 10^3 CFU (colony forming units)/mL in appropriate fungal growth media (RPMI). This initial population density was precisely determined by preparing ten-fold dilutions and plating them on the appropriate solid fungal growth media for colony enumeration. […] Following incubation, the colonies were manually counted to determine the precise number of colonies present in the initial population. […]
The tubes were visually assessed on the basis of turbidity in order to determine fungal growth.

Each structure is given as a SMILES string. Counter-ions that a name gives are not always drawn.

Consider `CN(C/C=C/C#CC(C)(C)C)Cc1cccc2ccccc12` [Terbinafine hydrochloride, terbinafine hydrochloride], for which the MIC was 0.012 µg/mL.
